The target of assay [1] is T1, full-length SHP2 (His6-tagged SHP2(2-527)) (Homo sapiens, UniProt Q06124).
T1 construct: His6-tagged SHP2(2-527); His6; made in house; host or cells: E. coli
In words: SHP2 Enzymatic Assay (fluorescence intensity kinetic assay, DiFMUP hydrolysis). Format: biochemical. The gist of the method:
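1 nM His6-SHP2(2-527), activated by 1 μM bis-phosphopeptide, hydrolysed 50 μM DiFMUP in 25 mM HEPES pH 7.4 with 1 mM DTT, 50 mM KCl and 2% DMSO. DiFMU fluorescence (Ex 355/Em 460 nm) was read kinetically for 15 min at ambient temperature.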

Assay [2] concerns ERK1/2 (Thr202/Tyr204) phosphorylation in KYSE520 cells. In words: Cellular Phospho-p44/42 MAPK (Erk 1/2) (Thr202/Tyr204) Assay (In-Cell Western). Format: cell-based. Conditions: Homo sapiens, KYSE-520, 1 h, read-out: Biological Example 2 IC50 (nM). How it is done: KYSE520 cells were obtained from DSMZ and grown in RPMI supplemented with 10% fetal bovine serum, pennicillin/streptomycin, 2 mM L-alanyl-L-glutamine dipeptide in 0.85% NaCl (Glutamax™), non-essential amino acids, and sodium pyruvate. Cells were plated in 96-well plates at 30,000 cells/well and allowed to attach overnight at 37° C./5% CO2. Cells were treated with compounds prepared as a 10-point, 1:3 dilution series (range: 20 μM-1 nM), with a final DMSO concentration of 0.5%. After 1 hour incubation, cells were fixed in 3.7% formaldehyde in Dulbecco's phosphate-buffered saline (“dPBS”) at room temperature for 20 minutes. Cells were then washed with dPBS and permeabilized in 100% MeOH at room temperature for 10 minutes. Following permeabilization, cells were washed in dPBS and incubated in LI-COR Blocking Buffer (LI-COR Biosciences, Cat #927-40000) for 1 hour or longer. Plates were then incubated with an antibody specific for the MEK-dependent ERK1/2 phosphorylation sites, threonine 202 and tyrosine 204 (Cell Signaling Technologies; Cat #9101), downstream of SHP2 in the MAP kinase signal transduction pathway, as well as GAPDH (Millipore; Cat #MAB374). pErk1/2 (Thr202/Tyr204) antibody was diluted in LI-COR blocking buffer containing 0.05% polysorbate-20 (Tween-20) at 1:250; GAPDH was diluted at 1:2,500. The plates were incubated overnight at 4° C. After washing with PBS/0.05% Tween-20, the cells were incubated with fluorescently-labeled secondary antibodies (Anti-rabbit-Alexa Flour680, Invitrogen Cat #A21109; Anti-mouse-IRDye800CW, Li-cor Bioscieces Cat #926-32210, both at 1:1000 dilution) for 1 hour. Cells were then washed, as above, and analyzed for fluorescence at both 680 nm and 800 nm wavelengths using the Aerius Infrared Imaging System (LI-COR Biosciences, Model 9250). Phosphorylated Erk1/2 (Thr202/Tyr204) signal was normalized to GAPDH signal for each well. IC50 values were calculated from the normalized values using a 4-parameter fit in BioAssay software. […] The reported IC50 in Table 2 may be from a single assay or the mean of multiple assays.

T1 sequence (Q06124 2-527): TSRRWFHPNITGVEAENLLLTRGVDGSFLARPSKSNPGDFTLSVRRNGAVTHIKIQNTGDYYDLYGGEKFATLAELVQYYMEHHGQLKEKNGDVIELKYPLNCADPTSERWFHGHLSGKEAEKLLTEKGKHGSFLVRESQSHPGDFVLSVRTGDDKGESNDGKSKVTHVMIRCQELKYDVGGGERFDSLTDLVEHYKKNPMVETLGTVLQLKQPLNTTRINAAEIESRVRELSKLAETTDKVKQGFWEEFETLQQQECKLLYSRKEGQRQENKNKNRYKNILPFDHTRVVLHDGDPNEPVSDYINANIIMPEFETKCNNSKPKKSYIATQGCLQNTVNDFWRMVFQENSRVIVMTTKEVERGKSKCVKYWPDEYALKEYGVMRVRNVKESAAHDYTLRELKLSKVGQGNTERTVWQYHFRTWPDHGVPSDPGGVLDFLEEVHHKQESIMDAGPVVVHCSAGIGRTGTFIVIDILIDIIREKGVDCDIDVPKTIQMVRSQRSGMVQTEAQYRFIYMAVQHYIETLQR

In general, IC50 refers to the point on the concentration scale where inhibition reaches its midpoint. On to `C[C@@H]1OCC2(CCN(c3cnc4nc(Sc5ccnc(NCCO)c5Cl)ccc4n3)CC2)[C@@H]1N` [Example 185, 2-((4-((2-((3S,4S)-4-amino-3-methyl-2-oxa-8-azaspiro[4.5]decan-8-yl)pyrido[2,3-b]pyrazin-6-yl)thio)-3-chloropyridin-2-yl)amino)ethan-1-ol], for which the IC50 is 408 nM in assay [1] and 166 nM in assay [2].
For `C[C@@H]1OCC2(CCN(c3cnc4nc(Sc5ccnc6[nH]ccc56)ccc4n3)CC2)[C@@H]1N` [Example 189, (3S,4S)-8-(6-((1H-pyrrolo[2,3-b]pyridin-4-yl)thio)pyrido[2,3-b]pyrazin-2-yl)-3-methyl-2-oxa-8-azaspiro[4.5]decan-4-amine], in that order: 59 nM and 98 nM.
On to `Nc1nccc(Sc2ccc3nc(N4CC5CC(C4)N5)cnc3n2)c1Cl` [Example 200, 4-((2-(3,6-diazabicyclo[3.1.1]heptan-3-yl)pyrido[2,3-b]pyrazin-6-yl)thio)-3-chloropyridin-2-amine], for which the IC50 in assay [1] was 48 nM; in assay [2], 122 nM.
Consider `N[C@@H]1c2cccnc2CC12CCN(c1cnc3nc(Sc4ccnc(N5CC[C@H](CO)C5)c4Cl)ccc3n1)CC2` [Example 210, ((S)-1-(4-((2-((S)-5-amino-5,7-dihydrospiro[cyclopenta[b]pyridine-6,4′-piperidin]-1′-yl)pyrido[2,3-b]pyrazin-6-yl)thio)-3-chloropyridin-2-yl)pyrrolidin-3-yl)methanol], for which the values for the IC50 in assay [1] and in assay [2] were 63 nM and 16 nM, respectively.
